Experimental data taken from PubChem BioAssay (NCI).
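Assay format: 96-well plates, 48-hour exposure. TGI denotes the concentration required for complete inhibition of growth.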

Assays:
Test in all cases: inhibition of tumour cell growth, NCI panel, 48 h
786-0 renal = tested on: 786-0 renal
A498 renal = tested on: A498 renal
A549 NSCLC = tested on: A549 NSCLC
ACHN renal = tested on: ACHN renal
BT-549 breast = tested on: BT-549 breast
COLO 205 colon = tested on: COLO 205 colon
DU-145 prostate = tested on: DU-145 prostate
EKVX NSCLC = tested on: EKVX NSCLC
HCC-2998 colon = tested on: HCC-2998 colon
HCT-116 colon = tested on: HCT-116 colon
HCT-15 colon = tested on: HCT-15 colon
HL-60(TB) leukemia = tested on: HL-60(TB) leukemia
HOP-62 NSCLC = tested on: HOP-62 NSCLC
HOP-92 NSCLC = tested on: HOP-92 NSCLC
HS 578T breast = tested on: HS 578T breast
HT29 colon = tested on: HT29 colon
K-562 leukemia = tested on: K-562 leukemia
LOX IMVI melanoma = tested on: LOX IMVI melanoma
M14 melanoma = tested on: M14 melanoma
MALME-3M melanoma = tested on: MALME-3M melanoma
MCF7 breast = tested on: MCF7 breast
MDA-MB-231 breast = tested on: MDA-MB-231 breast
MDA-MB-435 = tested on: MDA-MB-435
MOLT-4 leukemia = tested on: MOLT-4 leukemia
NCI-H226 lung = tested on: NCI-H226 lung
NCI-H23 lung = tested on: NCI-H23 lung
NCI-H460 lung = tested on: NCI-H460 lung
NCI-H522 lung = tested on: NCI-H522 lung
NCI/ADR-RES ovarian = tested on: NCI/ADR-RES ovarian
OVCAR-4 ovarian = tested on: OVCAR-4 ovarian
OVCAR-5 ovarian = tested on: OVCAR-5 ovarian
OVCAR-8 ovarian = tested on: OVCAR-8 ovarian
PC-3 prostate = tested on: PC-3 prostate
RXF 393 renal = tested on: RXF 393 renal
SF-268 CNS = tested on: SF-268 CNS
SF-539 CNS = tested on: SF-539 CNS
SK-MEL-2 melanoma = tested on: SK-MEL-2 melanoma
SK-MEL-28 melanoma = tested on: SK-MEL-28 melanoma
SK-MEL-5 melanoma = tested on: SK-MEL-5 melanoma
SK-OV-3 ovarian = tested on: SK-OV-3 ovarian
SN12C renal = tested on: SN12C renal
SNB-19 CNS = tested on: SNB-19 CNS
SNB-75 CNS = tested on: SNB-75 CNS
SW-620 colon = tested on: SW-620 colon
T-47D breast = tested on: T-47D breast
TK-10 renal = tested on: TK-10 renal
U251 CNS = tested on: U251 CNS
UACC-257 melanoma = tested on: UACC-257 melanoma
UACC-62 melanoma = tested on: UACC-62 melanoma
UO-31 renal = tested on: UO-31 renal
CAKI-1 renal = tested on: CAKI-1 renal
CCRF-CEM leukemia = tested on: CCRF-CEM leukemia
IGROV1 ovarian = tested on: IGROV1 ovarian
KM12 colon = tested on: KM12 colon
OVCAR-3 ovarian = tested on: OVCAR-3 ovarian
RPMI-8226 leukemia = tested on: RPMI-8226 leukemia
SF-295 CNS = tested on: SF-295 CNS

`CC1CCC(C(C)C2C(O)CC3C4CC=C5CC(O)CCC5(C)C4CCC32C)NC1` (stereo not given) showed a TGI (786-0 renal) of 89.9 µM, a TGI (A498 renal) greater than 100 µM and a TGI (A549 NSCLC) greater than 100 µM. The TGI (ACHN renal) was greater than 100 µM, the TGI (BT-549 breast) was greater than 100 µM and the TGI (COLO 205 colon) was greater than 100 µM. For the same molecule, the TGI (DU-145 prostate) was greater than 100 µM, the TGI (EKVX NSCLC) was greater than 100 µM and the TGI (HCC-2998 colon) was 53.1 µM. For the same molecule, the TGI (HCT-116 colon) was greater than 100 µM, the TGI (HCT-15 colon) was greater than 100 µM and the TGI (HL-60(TB) leukemia) was 52.8 µM. The TGI (HOP-62 NSCLC) was 66 µM, the TGI (HOP-92 NSCLC) was 69.8 µM and the TGI (HS 578T breast) was greater than 100 µM. It also gave a TGI (HT29 colon) greater than 100 µM, a TGI (K-562 leukemia) greater than 100 µM and a TGI (LOX IMVI melanoma) of 51 µM. For the same molecule, the TGI (M14 melanoma) was greater than 100 µM, the TGI (MALME-3M melanoma) was 55.2 µM and the TGI (MCF7 breast) was greater than 100 µM. The TGI (MDA-MB-231 breast) was 81.6 µM, the TGI (MDA-MB-435) was 65.8 µM and the TGI (MOLT-4 leukemia) was 35.8 µM. It also gave a TGI (NCI-H226 lung) greater than 100 µM, a TGI (NCI-H23 lung) greater than 100 µM and a TGI (NCI-H460 lung) greater than 100 µM. It also gave a TGI (NCI-H522 lung) greater than 100 µM, a TGI (NCI/ADR-RES ovarian) of 58.2 µM and a TGI (OVCAR-4 ovarian) of 53.4 µM. It also gave a TGI (OVCAR-5 ovarian) greater than 100 µM, a TGI (OVCAR-8 ovarian) of 29.3 µM and a TGI (PC-3 prostate) of 95.4 µM. The TGI (RXF 393 renal) was greater than 100 µM, the TGI (SF-268 CNS) was greater than 100 µM and the TGI (SF-539 CNS) was greater than 100 µM. The TGI (SK-MEL-2 melanoma) was greater than 100 µM, the TGI (SK-MEL-28 melanoma) was greater than 100 µM and the TGI (SK-MEL-5 melanoma) was greater than 100 µM. For the same molecule, the TGI (SK-OV-3 ovarian) was greater than 100 µM, the TGI (SN12C renal) was 47.2 µM and the TGI (SNB-19 CNS) was 74.5 µM. The TGI (SNB-75 CNS) was greater than 100 µM, the TGI (SW-620 colon) was greater than 100 µM and the TGI (T-47D breast) was greater than 100 µM. For the same molecule, the TGI (TK-10 renal) was 30.4 µM, the TGI (U251 CNS) was 70.3 µM and the TGI (UACC-257 melanoma) was greater than 100 µM. For the same molecule, the TGI (UACC-62 melanoma) was greater than 100 µM and the TGI (UO-31 renal) was greater than 100 µM.
Work on `CS(=O)(=O)Nc1ccc(Nc2cc[nH]c3ccc4nccc4c23)cc1` yielded a TGI (786-0 renal) of 38.4 µM, a TGI (A498 renal) of 34.2 µM and a TGI (A549 NSCLC) of 38.8 µM. For the same molecule, the TGI (ACHN renal) was 65.3 µM, the TGI (BT-549 breast) was 40 µM and the TGI (CAKI-1 renal) was 68.4 µM. It also gave a TGI (CCRF-CEM leukemia) greater than 67.8 µM, a TGI (COLO 205 colon) of 44.2 µM and a TGI (DU-145 prostate) of 22.2 µM. It also gave a TGI (EKVX NSCLC) of 58.7 µM, a TGI (HCC-2998 colon) of 16.3 µM and a TGI (HCT-116 colon) greater than 43.1 µM. It also gave a TGI (HCT-15 colon) greater than 100 µM, a TGI (HL-60(TB) leukemia) of 42 µM and a TGI (HOP-62 NSCLC) of 37.3 µM. For the same molecule, the TGI (HOP-92 NSCLC) was 46.3 µM, the TGI (HS 578T breast) was greater than 60.8 µM and the TGI (HT29 colon) was 48.4 µM. For the same molecule, the TGI (IGROV1 ovarian) was 58.5 µM, the TGI (K-562 leukemia) was 32 µM and the TGI (KM12 colon) was 28.1 µM. The TGI (LOX IMVI melanoma) was 34.2 µM, the TGI (M14 melanoma) was 30.4 µM and the TGI (MALME-3M melanoma) was 18.4 µM. For the same molecule, the TGI (MCF7 breast) was 20.7 µM, the TGI (MDA-MB-231 breast) was 21.6 µM and the TGI (MDA-MB-435) was 29.5 µM. For the same molecule, the TGI (MOLT-4 leukemia) was 7.78 µM, the TGI (NCI-H226 lung) was 24.5 µM and the TGI (NCI-H23 lung) was 38.5 µM. For the same molecule, the TGI (NCI-H460 lung) was 31.8 µM, the TGI (NCI-H522 lung) was 24.3 µM and the TGI (NCI/ADR-RES ovarian) was greater than 100 µM. The TGI (OVCAR-3 ovarian) was 32.5 µM, the TGI (OVCAR-4 ovarian) was 26.2 µM and the TGI (OVCAR-5 ovarian) was 61.1 µM. It also gave a TGI (OVCAR-8 ovarian) greater than 65.1 µM, a TGI (PC-3 prostate) of 30.3 µM and a TGI (RPMI-8226 leukemia) of 44.6 µM. For the same molecule, the TGI (RXF 393 renal) was 30.2 µM, the TGI (SF-268 CNS) was 18.9 µM and the TGI (SF-295 CNS) was 62.2 µM. The TGI (SK-MEL-2 melanoma) was 23.9 µM, the TGI (SK-MEL-28 melanoma) was 32.2 µM and the TGI (SK-MEL-5 melanoma) was 24.7 µM. The TGI (SK-OV-3 ovarian) was greater than 100 µM, the TGI (SN12C renal) was 32.3 µM and the TGI (SNB-19 CNS) was 26.3 µM. It also gave a TGI (SW-620 colon) of 49.8 µM, a TGI (T-47D breast) of 22.6 µM and a TGI (TK-10 renal) of 82.1 µM. For the same molecule, the TGI (U251 CNS) was 22 µM, the TGI (UACC-257 melanoma) was 31.5 µM and the TGI (UACC-62 melanoma) was 28.1 µM. It also gave a TGI (UO-31 renal) greater than 81.2 µM.
